pIC50: −log10 of the molar value.
Assays:
BCR-KIT BaF3 cells = target: T1, BCR-KIT BaF3 cells (Homo sapiens, UniProt P10721); assay: BaF3 BCR-KIT cell proliferation assay (ATPlite); format: cell-based; details: read-out: Inhibition of Cell Proliferation IC50, BCR/BaF3 Kit
T1 construct: fused on or other part: P11274 (Breakpoint cluster region protein)
In short: (§1)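 Proliferation was run for 3 days at 37 °C against 8-point 1:3 titrations with 10 μM as the top final concentration. Seeding was 10,000 cells/well for BaF3 BCR-fusion lines, grown without IL-3, and 25,000 cells/well for MV-4-11. IC50 was derived from ATPlite luminescence read as cell number.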

BCR-NTRK1 BaF3 cells = target: T2, BCR-NTRK1 BaF3 cells (Homo sapiens, UniProt P04629); assay: BaF3 BCR-NTRK1 cell proliferation assay (ATPlite); format: cell-based; details: read-out: Inhibition of Cell Proliferation IC50, BCR/BaF3 TrkA
T2 construct: fused on or other part: P11274 (Breakpoint cluster region protein)
T2 sequence (P04629 510-781): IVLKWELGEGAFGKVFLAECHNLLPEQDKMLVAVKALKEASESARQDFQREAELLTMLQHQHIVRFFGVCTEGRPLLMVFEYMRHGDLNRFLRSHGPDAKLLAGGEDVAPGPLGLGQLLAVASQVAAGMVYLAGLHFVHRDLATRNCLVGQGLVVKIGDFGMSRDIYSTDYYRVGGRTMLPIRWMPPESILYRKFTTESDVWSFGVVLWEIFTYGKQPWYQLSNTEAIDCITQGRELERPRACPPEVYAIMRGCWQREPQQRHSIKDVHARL
In short: as §1

BCR-NTRK2 BaF3 cells = target: T3, BCR-NTRK2 BaF3 cells (Homo sapiens, UniProt Q16620); assay: BaF3 BCR-NTRK2 cell proliferation assay (ATPlite); format: cell-based; details: read-out: Inhibition of Cell Proliferation IC50, BCR/BaF3 TrkB
T3 construct: fused on or other part: P11274 (Breakpoint cluster region protein)
T3 sequence (Q16620 538-807): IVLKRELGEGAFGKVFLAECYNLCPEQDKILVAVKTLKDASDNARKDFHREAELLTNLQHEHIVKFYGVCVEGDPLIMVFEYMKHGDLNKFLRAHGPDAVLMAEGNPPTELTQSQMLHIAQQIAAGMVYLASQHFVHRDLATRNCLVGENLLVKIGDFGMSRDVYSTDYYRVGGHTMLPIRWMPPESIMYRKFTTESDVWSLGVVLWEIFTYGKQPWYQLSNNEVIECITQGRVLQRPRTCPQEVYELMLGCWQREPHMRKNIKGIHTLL
In short: as §1

CYP2C9 = CYP2C9 (Homo sapiens, UniProt P11712); assay: CYP2C9 inhibition (fluorescent substrate MFC); format: in vitro ADME; details: read-out: Cyp IC50 2C9
CYP2C9, sequence (P11712 whole entry): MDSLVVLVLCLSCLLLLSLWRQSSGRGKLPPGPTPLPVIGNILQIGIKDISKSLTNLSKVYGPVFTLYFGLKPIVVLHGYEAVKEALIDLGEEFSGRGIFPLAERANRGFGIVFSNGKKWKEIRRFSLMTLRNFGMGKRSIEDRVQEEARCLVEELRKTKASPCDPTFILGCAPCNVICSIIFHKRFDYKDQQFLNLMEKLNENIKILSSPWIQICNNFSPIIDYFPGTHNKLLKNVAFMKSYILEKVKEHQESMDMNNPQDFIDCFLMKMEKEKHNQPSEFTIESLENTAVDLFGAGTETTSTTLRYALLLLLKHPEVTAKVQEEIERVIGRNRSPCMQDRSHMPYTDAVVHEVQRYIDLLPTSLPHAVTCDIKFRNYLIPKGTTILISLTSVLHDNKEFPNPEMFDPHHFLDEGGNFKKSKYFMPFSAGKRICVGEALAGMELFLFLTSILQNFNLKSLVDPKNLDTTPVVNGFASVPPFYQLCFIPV
In short: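 Test compound titrated 1:1 across ten concentrations; metabolite fluorescence measured after 37 °C incubation of 15 min (CYP1A2), 30 min (CYP2C19, CYP2D6) or 45 min (CYP2C9). IC50 from signal versus concentration.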

T1 sequence (P10721 589-937): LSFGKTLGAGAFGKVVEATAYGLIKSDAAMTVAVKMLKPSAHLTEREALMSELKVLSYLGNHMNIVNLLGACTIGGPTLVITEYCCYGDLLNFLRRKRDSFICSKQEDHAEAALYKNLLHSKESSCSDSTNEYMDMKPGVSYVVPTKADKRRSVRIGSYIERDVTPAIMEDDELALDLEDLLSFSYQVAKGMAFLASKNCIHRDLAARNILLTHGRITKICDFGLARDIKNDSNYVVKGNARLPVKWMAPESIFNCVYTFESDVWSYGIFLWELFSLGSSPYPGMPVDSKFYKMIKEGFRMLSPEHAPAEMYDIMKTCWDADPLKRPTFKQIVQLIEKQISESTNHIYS

Compound | pIC50 (BCR-KIT BaF3 cells) | pIC50 (BCR-NTRK1 BaF3 cells) | pIC50 (BCR-NTRK2 BaF3 cells) | pIC50 (CYP2C9)
O=C(c1ccc(NC2CCC(F)(F)CC2)nc1)c1c[nH]c2ncnc(NC3CC3)c12 [Compound P-4088, [4-(cyclopropylamino)-7H-pyrrolo[2,3-d]pyrimidin-5-yl]-[6-[(4,4-difluorocyclohexyl)amino]-3-pyridyl]methanone] | > 6.00 | > 7.00 | > 7.00 | < 5.00
CNc1ncnc2[nH]cc(C(=O)c3ccc(NC4CCC(F)(F)CC4)nc3)c12 [Compound P-4089, [6-[(4,4-difluorocyclohexyl)amino]-3-pyridyl]-[4-(methylamino)-7H-pyrrolo[2,3-d]pyrimidin-5-yl]methanone] | > 6.00 | > 6.00 | > 7.00 | < 5.00
O=C(c1ccc(Nc2ccc(C3CC3)nc2)nc1F)c1c[nH]c2ncnc(NCC(F)(F)F)c12 [Compound P-4090, [6-[(6-cyclopropyl-3-pyridyl)amino]-2-fluoro-3-pyridyl]-[4-(2,2,2-trifluoroethylamino)-7H-pyrrolo[2,3-d]pyrimidin-5-yl]methanone] | > 6.00 | > 7.00 | > 8.00 | < 5.00
CCc1ccc(Nc2ccc(C(=O)c3c[nH]c4ncnc(NC5CCC(F)(F)CC5)c34)c(F)n2)cn1 [Compound P-4096, [4-[(4,4-difluorocyclohexyl)amino]-7H-pyrrolo[2,3-d]pyrimidin-5-yl]-[6-[(6-ethyl-3-pyridyl)amino]-2-fluoro-3-pyridyl]methanone] | > 6.00 | > 8.00 | > 8.00 | > 5.30
CCc1ccc(Nc2ccc(C(=O)c3c[nH]c4ncnc(N[C@@H](C)c5ccc(F)cc5)c34)c(F)n2)cn1 [Compound P-4097, [6-[(6-ethyl-3-pyridyl)amino]-2-fluoro-3-pyridyl]-[4-[[(1S)-1-(4-fluorophenyl)ethyl]amino]-7H-pyrrolo[2,3-d]pyrimidin-5-yl]methanone] | > 6.00 | > 7.00 | > 7.00 | > 5.30
CCCCNc1ncnc2[nH]cc(C(=O)c3ccc(Nc4ccc(CC)nc4)nc3F)c12 [Compound P-4100, [4-(butylamino)-7H-pyrrolo[2,3-d]pyrimidin-5-yl]-[6-[(6-ethyl-3-pyridyl)amino]-2-fluoro-3-pyridyl]methanone] | > 6.00 | > 8.00 | > 8.00 | > 5.30
CC(C)Nc1ncnc2[nH]cc(C(=O)c3ccc(NC4CCCCC4)nc3F)c12 [Compound P-4101, [6-(cyclohexylamino)-2-fluoro-3-pyridyl]-[4-(isopropylamino)-7H-pyrrolo[2,3-d]pyrimidin-5-yl]methanone] | > 6.00 | > 7.00 | > 8.00 | 5.00 to 5.30
CNc1ncnc2[nH]cc(C(=O)c3ccc(NC4CCCCC4)nc3F)c12 [Compound P-4102, [6-(cyclohexylamino)-2-fluoro-3-pyridyl]-[4-(methylamino)-7H-pyrrolo[2,3-d]pyrimidin-5-yl]methanone] | > 6.00 | > 6.00 | > 7.00 | > 5.30
COc1cncc(Nc2ccc(C(=O)c3c[nH]c4ncnc(NCC(F)(F)F)c34)c(F)n2)c1 [Compound P-4103, [2-fluoro-6-[(5-methoxy-3-pyridyl)amino]-3-pyridyl]-[4-(2,2,2-trifluoroethylamino)-7H-pyrrolo[2,3-d]pyrimidin-5-yl]methanone] | < 6.00 | > 6.00 | < 6.00 | < 5.00
COc1cncc(Nc2ccc(C(=O)c3c[nH]c4ncnc(NC5CCCCC5)c34)c(F)n2)c1 [Compound P-4104, [4-(cyclohexylamino)-7H-pyrrolo[2,3-d]pyrimidin-5-yl]-[2-fluoro-6-[(5-methoxy-3-pyridyl)amino]-3-pyridyl]methanone] | < 6.00 | > 7.00 | > 7.00 | < 5.00
CCCNc1ncnc2[nH]cc(C(=O)c3ccc(Nc4cncc(OC)c4)nc3F)c12 [Compound P-4105, [2-fluoro-6-[(5-methoxy-3-pyridyl)amino]-3-pyridyl]-[4-(propylamino)-7H-pyrrolo[2,3-d]pyrimidin-5-yl]methanone] | < 6.00 | > 7.00 | > 6.00 | < 5.00
COc1cncc(Nc2ccc(C(=O)c3c[nH]c4ncnc(NC(C)C)c34)c(F)n2)c1 [Compound P-4106, [2-fluoro-6-[(5-methoxy-3-pyridyl)amino]-3-pyridyl]-[4-(isopropylamino)-7H-pyrrolo[2,3-d]pyrimidin-5-yl]methanone] | > 6.00 | > 7.00 | > 7.00 | > 5.30

The next lines start with the values.

pIC50 (BCR-KIT BaF3 cells) | pIC50 (BCR-NTRK1 BaF3 cells) | pIC50 (BCR-NTRK2 BaF3 cells) | pIC50 (CYP2C9) | Compound
> 7.00 | > 8.00 | > 8.00 | < 5.00 | O=C(c1ccc(Nc2ccc(C(F)(F)F)nc2)nc1F)c1c[nH]c2ncnc(NC3CC3)c12 [Compound P-4091, [4-(cyclopropylamino)-7H-pyrrolo[2,3-d]pyrimidin-5-yl]-[2-fluoro-6-[[6-(trifluoromethyl)-3-pyridyl]amino]-3-pyridyl]methanone]
> 7.00 | > 8.00 | > 8.00 | > 5.30 | CNc1ncnc2[nH]cc(C(=O)c3ccc(Nc4ccc(C(F)(F)F)nc4)nc3F)c12 [Compound P-4092, [2-fluoro-6-[[6-(trifluoromethyl)-3-pyridyl]amino]-3-pyridyl]-[4-(methylamino)-7H-pyrrolo[2,3-d]pyrimidin-5-yl]methanone]
> 7.00 | > 8.00 | > 8.00 | < 5.00 | O=C(c1ccc(Nc2ccc(C3CC3)nc2)nc1F)c1c[nH]c2ncnc(NC3CC3)c12 [Compound P-4093, [4-(cyclopropylamino)-7H-pyrrolo[2,3-d]pyrimidin-5-yl]-[6-[(6-cyclopropyl-3-pyridyl)amino]-2-fluoro-3-pyridyl]methanone]
> 7.00 | > 8.00 | > 8.00 | > 5.30 | CNc1ncnc2[nH]cc(C(=O)c3ccc(Nc4ccc(C5CC5)nc4)nc3F)c12 [Compound P-4094, [6-[(6-cyclopropyl-3-pyridyl)amino]-2-fluoro-3-pyridyl]-[4-(methylamino)-7H-pyrrolo[2,3-d]pyrimidin-5-yl]methanone]
> 7.00 | > 8.00 | > 8.00 | < 5.00 | CCc1ccc(Nc2ccc(C(=O)c3c[nH]c4ncnc(NC5CCC5)c34)c(F)n2)cn1 [Compound P-4095, [4-(cyclobutylamino)-7H-pyrrolo[2,3-d]pyrimidin-5-yl]-[6-[(6-ethyl-3-pyridyl)amino]-2-fluoro-3-pyridyl]methanone]
> 7.00 | > 8.00 | > 8.00 | > 5.30 | CCc1ccc(Nc2ccc(C(=O)c3c[nH]c4ncnc(NCCCOC)c34)c(F)n2)cn1 [Compound P-4098, [6-[(6-ethyl-3-pyridyl)amino]-2-fluoro-3-pyridyl]-[4-(3-methoxypropylamino)-7H-pyrrolo[2,3-d]pyrimidin-5-yl]methanone]
> 7.00 | > 8.00 | > 8.00 | > 5.30 | CCc1ccc(Nc2ccc(C(=O)c3c[nH]c4ncnc(NC5CCCC5)c34)c(F)n2)cn1 [Compound P-4099, [4-(cyclopentylamino)-7H-pyrrolo[2,3-d]pyrimidin-5-yl]-[6-[(6-ethyl-3-pyridyl)amino]-2-fluoro-3-pyridyl]methanone]

Reference: patent US8901118B2, “Compounds and methods for kinase modulation, and indications therefor” (Plexxikon Inc., priority 2010, dated 2014)
